{
  "source": "the NIST ThermoML archive (doi:10.1016/j.jct.2017.07.003)",
  "key": {"[1]": {"experiment": "xn = mol fraction of the nth substance listed", "conditions": "100 kPa, Liquid, Frequency=0.01 MHz, Alternating current cell with electrodes"}, "[2]": {"experiment": "mn = molality of the nth substance listed, in mol/kg", "conditions": "100 kPa, Liquid, Frequency=0.01 MHz, Alternating current cell with electrodes"}, "[3]": {"conditions": "100 kPa, Liquid, Frequency=0.01 MHz, Alternating current cell with electrodes"}},
  "note": "± gives the expanded uncertainty stated by the source.",
  "data": [
    {"smiles": "CCCO", "note": "[propan-1-ol] + O", "values": [
      {"measurement": "electrical conductivity", "setting": "[1]; 293.15 K, x2 = 0", "value": "1.51e-06 ± 6e-08", "unit": "S/m"},
      {"measurement": "electrical conductivity", "setting": "[1]; 293.15 K, x2 = 0.1", "value": "3.98e-06 ± 7e-07", "unit": "S/m"},
      {"measurement": "electrical conductivity", "setting": "[1]; 293.15 K, x2 = 0.2", "value": "8.35e-06 ± 1e-06", "unit": "S/m"},
      {"measurement": "electrical conductivity", "setting": "[1]; 293.15 K, x2 = 0.3", "value": "1.38e-05 ± 1e-06", "unit": "S/m"},
      {"measurement": "electrical conductivity", "setting": "[1]; 293.15 K, x2 = 0.4", "value": "1.71e-05 ± 9.3e-07", "unit": "S/m"},
      {"measurement": "electrical conductivity", "setting": "[1]; 293.15 K, x2 = 0.5", "value": "2.01e-05 ± 1.2e-06", "unit": "S/m"},
      {"measurement": "electrical conductivity", "setting": "[1]; 293.15 K, x2 = 0.6", "value": "2.54e-05 ± 1.3e-06", "unit": "S/m"},
      {"measurement": "electrical conductivity", "setting": "[1]; 293.15 K, x2 = 0.7", "value": "2.84e-05 ± 1.3e-06", "unit": "S/m"},
      {"measurement": "electrical conductivity", "setting": "[1]; 293.15 K, x2 = 0.8", "value": "3.15e-05 ± 1.4e-06", "unit": "S/m"},
      {"measurement": "electrical conductivity", "setting": "[1]; 298.15 K, x2 = 0", "value": "1.8e-06 ± 7e-08", "unit": "S/m"},
      {"measurement": "electrical conductivity", "setting": "[1]; 298.15 K, x2 = 0.1", "value": "4.32e-06 ± 6.7e-07", "unit": "S/m"},
      {"measurement": "electrical conductivity", "setting": "[1]; 298.15 K, x2 = 0.2", "value": "8.31e-06 ± 1.1e-06", "unit": "S/m"},
      {"measurement": "electrical conductivity", "setting": "[1]; 298.15 K, x2 = 0.3", "value": "1.46e-05 ± 1.2e-06", "unit": "S/m"},
      {"measurement": "electrical conductivity", "setting": "[1]; 298.15 K, x2 = 0.4", "value": "1.86e-05 ± 1e-06", "unit": "S/m"},
      {"measurement": "electrical conductivity", "setting": "[1]; 298.15 K, x2 = 0.5", "value": "2.13e-05 ± 1.1e-06", "unit": "S/m"},
      {"measurement": "electrical conductivity", "setting": "[1]; 298.15 K, x2 = 0.6", "value": "2.55e-05 ± 1.3e-06", "unit": "S/m"},
      {"measurement": "electrical conductivity", "setting": "[1]; 298.15 K, x2 = 0.7", "value": "2.93e-05 ± 1.4e-06", "unit": "S/m"},
      {"measurement": "electrical conductivity", "setting": "[1]; 298.15 K, x2 = 0.8", "value": "3.36e-05 ± 1.6e-06", "unit": "S/m"},
      {"measurement": "electrical conductivity", "setting": "[1]; 303.15 K, x2 = 0", "value": "2.16e-06 ± 9e-08", "unit": "S/m"},
      {"measurement": "electrical conductivity", "setting": "[1]; 303.15 K, x2 = 0.1", "value": "4.68e-06 ± 8.3e-07", "unit": "S/m"},
      {"measurement": "electrical conductivity", "setting": "[1]; 303.15 K, x2 = 0.2", "value": "1.03e-05 ± 1.2e-06", "unit": "S/m"},
      {"measurement": "electrical conductivity", "setting": "[1]; 303.15 K, x2 = 0.3", "value": "1.58e-05 ± 1.1e-06", "unit": "S/m"},
      {"measurement": "electrical conductivity", "setting": "[1]; 303.15 K, x2 = 0.4", "value": "1.92e-05 ± 1e-06", "unit": "S/m"},
      {"measurement": "electrical conductivity", "setting": "[1]; 303.15 K, x2 = 0.5", "value": "2.27e-05 ± 1.2e-06", "unit": "S/m"},
      {"measurement": "electrical conductivity", "setting": "[1]; 303.15 K, x2 = 0.6", "value": "2.68e-05 ± 1.3e-06", "unit": "S/m"},
      {"measurement": "electrical conductivity", "setting": "[1]; 303.15 K, x2 = 0.7", "value": "3.06e-05 ± 1.5e-06", "unit": "S/m"},
      {"measurement": "electrical conductivity", "setting": "[1]; 303.15 K, x2 = 0.8", "value": "3.5e-05 ± 1.7e-06", "unit": "S/m"},
      {"measurement": "electrical conductivity", "setting": "[1]; 308.15 K, x2 = 0", "value": "2.38e-06 ± 1e-07", "unit": "S/m"},
      {"measurement": "electrical conductivity", "setting": "[1]; 308.15 K, x2 = 0.1", "value": "4.92e-06 ± 6.5e-07", "unit": "S/m"},
      {"measurement": "electrical conductivity", "setting": "[1]; 308.15 K, x2 = 0.2", "value": "8.6e-06 ± 1.2e-06", "unit": "S/m"},
      {"measurement": "electrical conductivity", "setting": "[1]; 308.15 K, x2 = 0.3", "value": "1.65e-05 ± 1.3e-06", "unit": "S/m"},
      {"measurement": "electrical conductivity", "setting": "[1]; 308.15 K, x2 = 0.4", "value": "2.01e-05 ± 1.2e-06", "unit": "S/m"},
      {"measurement": "electrical conductivity", "setting": "[1]; 308.15 K, x2 = 0.5", "value": "2.55e-05 ± 1.4e-06", "unit": "S/m"},
      {"measurement": "electrical conductivity", "setting": "[1]; 308.15 K, x2 = 0.6", "value": "2.96e-05 ± 1.4e-06", "unit": "S/m"},
      {"measurement": "electrical conductivity", "setting": "[1]; 308.15 K, x2 = 0.7", "value": "3.26e-05 ± 1.5e-06", "unit": "S/m"},
      {"measurement": "electrical conductivity", "setting": "[1]; 308.15 K, x2 = 0.8", "value": "3.75e-05 ± 1.8e-06", "unit": "S/m"}
    ]},
    {"smiles": "[I-].[Na+]", "note": "[sodium iodide] + CCCO", "values": [
      {"measurement": "electrical conductivity", "setting": "[2]; 293.15 K, m1 = 0.0007138", "value": "0.00107 ± 4.3e-05", "unit": "S/m"},
      {"measurement": "electrical conductivity", "setting": "[2]; 298.15 K, m1 = 0.0009446", "value": "0.00154 ± 6.2e-05", "unit": "S/m"},
      {"measurement": "electrical conductivity", "setting": "[2]; 303.15 K, m1 = 0.0007238", "value": "0.00135 ± 5.4e-05", "unit": "S/m"},
      {"measurement": "electrical conductivity", "setting": "[2]; 308.15 K, m1 = 0.0006021", "value": "0.00126 ± 5.1e-05", "unit": "S/m"}
    ]},
    {"smiles": "CCCO", "note": "[propan-1-ol]", "values": [
      {"measurement": "electrical conductivity", "setting": "[3]; 293.15 K", "value": "1.51e-06 ± 4e-07", "unit": "S/m"},
      {"measurement": "electrical conductivity", "setting": "[3]; 298.15 K", "value": "1.8e-06 ± 4e-07", "unit": "S/m"},
      {"measurement": "electrical conductivity", "setting": "[3]; 303.15 K", "value": "2.16e-06 ± 4e-07", "unit": "S/m"},
      {"measurement": "electrical conductivity", "setting": "[3]; 308.15 K", "value": "2.38e-06 ± 4e-07", "unit": "S/m"}
    ]}
  ]
}
